Data from PubChem BioAssay (NCI).
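How tested: cells in 96-well plates exposed to compound for 48 hours at five concentrations. TGI is the concentration that stops growth completely.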

How the values were obtained:
Experiment in all cases: DTP human tumour cell line panel, 48 h
[1] = system: UACC-62 melanoma
[2] = system: NCI-H23 lung
[3] = system: OVCAR-4 ovarian
[4] = system: HS 578T breast
[5] = system: MDA-N
[6] = system: DU-145 prostate
[7] = system: OVCAR-5 ovarian
[8] = system: PC-3 prostate
[9] = system: UACC-257 melanoma
[10] = system: K-562 leukemia
[11] = system: EKVX NSCLC
[12] = system: HCC-2998 colon
[13] = system: OVCAR-3 ovarian
[14] = system: RPMI-8226 leukemia
[15] = system: CCRF-CEM leukemia
[16] = system: SF-295 CNS
[17] = system: SNB-19 CNS
[18] = system: U251 CNS
[19] = system: SK-MEL-2 melanoma
[20] = system: T-47D breast
[21] = system: SW-620 colon
[22] = system: MDA-MB-231 breast
[23] = system: SK-MEL-28 melanoma
[24] = system: NCI-H460 lung
[25] = system: MALME-3M melanoma
[26] = system: OVCAR-8 ovarian
[27] = system: COLO 205 colon
[28] = system: IGROV1 ovarian
[29] = system: HOP-92 NSCLC
[30] = system: RXF 393 renal
[31] = system: SK-OV-3 ovarian
[32] = system: SF-539 CNS
[33] = system: HCT-15 colon
[34] = system: SN12C renal
[35] = system: MCF7 breast
[36] = system: TK-10 renal
[37] = system: LOX IMVI melanoma
[38] = system: A549 NSCLC
[39] = system: SNB-75 CNS
[40] = system: SF-268 CNS
[41] = system: NCI/ADR-RES ovarian
[42] = system: M14 melanoma
[43] = system: NCI-H522 lung
[44] = system: MDA-MB-435
[45] = system: HL-60(TB) leukemia
[46] = system: ACHN renal
[47] = system: SK-MEL-5 melanoma
[48] = system: HOP-62 NSCLC
[49] = system: BT-549 breast
[50] = system: NCI-H226 lung
[51] = system: HT29 colon
[52] = system: HCT-116 colon
[53] = system: A498 renal
[54] = system: KM12 colon
[55] = system: MOLT-4 leukemia
[56] = system: 786-0 renal
[57] = system: SR leukemia
[58] = system: UO-31 renal
[59] = system: CAKI-1 renal

NC(=S)N/N=C1\CCCCC1C(O)(C(F)(F)Cl)C(F)(F)Cl (stereo not drawn)
TGI [1]: > 10 µM | TGI [2]: > 10 µM | TGI [3]: > 10 µM | TGI [4]: > 10 µM | TGI [5]: > 10 µM | TGI [6]: > 10 µM | TGI [7]: > 10 µM | TGI [8]: > 10 µM | TGI [9]: > 10 µM | TGI [10]: > 10 µM | TGI [11]: > 10 µM | TGI [12]: > 10 µM | TGI [13]: > 10 µM | TGI [14]: > 10 µM | TGI [15]: > 10 µM | TGI [16]: > 10 µM | TGI [17]: > 10 µM | TGI [18]: > 10 µM | TGI [19]: > 10 µM | TGI [20]: > 10 µM | TGI [21]: > 10 µM | TGI [22]: > 10 µM | TGI [23]: > 10 µM | TGI [24]: > 10 µM | TGI [25]: > 10 µM | TGI [26]: > 10 µM | TGI [27]: > 10 µM | TGI [28]: > 10 µM | TGI [29]: > 10 µM | TGI [30]: > 10 µM | TGI [31]: > 10 µM | TGI [32]: > 10 µM | TGI [33]: > 10 µM | TGI [34]: > 10 µM | TGI [35]: > 10 µM | TGI [36]: > 10 µM | TGI [37]: > 10 µM | TGI [38]: > 10 µM | TGI [39]: > 10 µM | TGI [40]: > 10 µM | TGI [41]: > 10 µM | TGI [42]: > 10 µM | TGI [43]: > 10 µM | TGI [44]: > 10 µM | TGI [45]: > 10 µM | TGI [46]: > 10 µM | TGI [47]: > 10 µM | TGI [48]: > 10 µM | TGI [49]: > 10 µM | TGI [50]: > 10 µM | TGI [51]: > 10 µM | TGI [52]: > 10 µM | TGI [53]: > 10 µM | TGI [54]: > 10 µM | TGI [55]: > 10 µM | TGI [56]: > 10 µM

C=CCN1C[C@@H](C)N([C@@H](c2ccc(C(=O)N(CC)CC)cc2)c2cccc(OC)c2)C[C@@H]1C
TGI [1]: > 100 µM | TGI [2]: > 100 µM | TGI [3]: > 100 µM | TGI [4]: > 100 µM | TGI [5]: > 100 µM | TGI [6]: > 100 µM | TGI [7]: > 100 µM | TGI [8]: > 100 µM | TGI [10]: > 100 µM | TGI [11]: > 100 µM | TGI [13]: > 100 µM | TGI [14]: > 100 µM | TGI [15]: > 100 µM | TGI [16]: > 100 µM | TGI [17]: > 100 µM | TGI [18]: > 100 µM | TGI [19]: > 100 µM | TGI [20]: > 100 µM | TGI [21]: > 100 µM | TGI [22]: > 100 µM | TGI [57]: > 100 µM | TGI [23]: > 100 µM | TGI [25]: > 100 µM | TGI [26]: > 100 µM | TGI [27]: > 100 µM | TGI [58]: > 100 µM | TGI [28]: > 100 µM | TGI [29]: > 100 µM | TGI [31]: > 100 µM | TGI [32]: > 100 µM | TGI [33]: > 100 µM | TGI [34]: > 100 µM | TGI [35]: > 100 µM | TGI [37]: > 100 µM | TGI [38]: > 100 µM | TGI [40]: > 100 µM | TGI [41]: > 100 µM | TGI [42]: > 100 µM | TGI [43]: > 100 µM | TGI [44]: > 100 µM | TGI [46]: > 100 µM | TGI [47]: > 100 µM | TGI [59]: > 100 µM | TGI [48]: > 100 µM | TGI [49]: > 100 µM | TGI [50]: > 100 µM | TGI [51]: > 100 µM | TGI [52]: > 100 µM | TGI [53]: > 100 µM | TGI [54]: > 100 µM | TGI [55]: > 100 µM | TGI [56]: > 100 µM

Cc1ccc([N+](=O)[O-])cc1S(=O)(=O)Nc1ccc(C2=NN(S(=O)(=O)c3cc([N+](=O)[O-])ccc3C)C(c3ccco3)C2)cc1 (stereo not drawn)
TGI [1]: > 100 µM | TGI [2]: > 100 µM | TGI [3]: > 100 µM | TGI [4]: > 100 µM | TGI [5]: > 100 µM | TGI [6]: > 100 µM | TGI [7]: > 100 µM | TGI [8]: > 100 µM | TGI [9]: 45.6 µM | TGI [10]: > 100 µM | TGI [11]: 94 µM | TGI [13]: > 100 µM | TGI [14]: > 100 µM | TGI [15]: > 100 µM | TGI [16]: > 100 µM | TGI [17]: > 100 µM | TGI [19]: > 100 µM | TGI [20]: 92.9 µM | TGI [21]: > 100 µM | TGI [57]: > 100 µM | TGI [23]: > 100 µM | TGI [25]: > 100 µM | TGI [26]: > 100 µM | TGI [27]: > 100 µM | TGI [58]: > 100 µM | TGI [28]: > 100 µM | TGI [29]: 47.7 µM | TGI [30]: > 100 µM | TGI [31]: > 100 µM | TGI [32]: > 100 µM | TGI [33]: > 100 µM | TGI [34]: > 100 µM | TGI [35]: > 100 µM | TGI [37]: > 100 µM | TGI [39]: > 100 µM | TGI [40]: > 100 µM | TGI [41]: > 100 µM | TGI [42]: > 100 µM | TGI [43]: > 100 µM | TGI [44]: > 100 µM | TGI [45]: 98.2 µM | TGI [46]: > 100 µM | TGI [47]: > 100 µM | TGI [59]: > 100 µM | TGI [48]: > 100 µM | TGI [49]: 97.5 µM | TGI [50]: > 100 µM | TGI [51]: > 100 µM | TGI [52]: > 100 µM | TGI [54]: > 100 µM | TGI [55]: > 100 µM | TGI [56]: > 100 µM

O[C@H]1[C@H](O)[C@@H](Cn2nnc(-c3ccccc3)c2-c2ccccc2)OCO[C@@H]1Cn1nnc(-c2ccccc2)c1-c1ccccc1
TGI [1]: 11.7 µM | TGI [2]: 26.2 µM | TGI [3]: 26.9 µM | TGI [4]: 33.2 µM | TGI [5]: 9.97 µM | TGI [6]: 23.2 µM | TGI [7]: 6.49 µM | TGI [8]: 8.83 µM | TGI [9]: 15.1 µM | TGI [10]: > 100 µM | TGI [11]: 30.1 µM | TGI [12]: 6.31 µM | TGI [13]: 9.14 µM | TGI [14]: 5.79 µM | TGI [15]: > 34.5 µM | TGI [16]: 13 µM | TGI [17]: 55.4 µM | TGI [18]: > 41 µM | TGI [19]: 9.41 µM | TGI [20]: 31.6 µM | TGI [21]: 46.6 µM | TGI [22]: 16.4 µM | TGI [23]: > 67.1 µM | TGI [24]: 13.4 µM | TGI [25]: 29.6 µM | TGI [26]: 18.1 µM | TGI [27]: 12.2 µM | TGI [58]: 17 µM | TGI [28]: 14.2 µM | TGI [29]: 8.23 µM | TGI [30]: 9.41 µM | TGI [31]: 27.2 µM | TGI [32]: 10.8 µM | TGI [33]: 11.8 µM | TGI [34]: 7.55 µM | TGI [35]: 11.5 µM | TGI [36]: 19 µM | TGI [37]: 5.85 µM | TGI [38]: 13.5 µM | TGI [39]: 28.9 µM | TGI [40]: 25 µM | TGI [41]: > 42.4 µM | TGI [42]: 11.7 µM | TGI [43]: 21.5 µM | TGI [44]: 22.8 µM | TGI [45]: > 24 µM | TGI [46]: 13.6 µM | TGI [47]: 10.2 µM | TGI [59]: 14.2 µM | TGI [48]: 29 µM | TGI [49]: 23.7 µM | TGI [50]: > 45.4 µM | TGI [51]: 3.61 µM | TGI [52]: 9.63 µM | TGI [53]: 16 µM | TGI [54]: 11.6 µM | TGI [55]: > 30.4 µM | TGI [56]: 7.39 µM
